Measured values taken from patent EP3839043A1, “SCREENING METHODS FOR COMPOUNDS MODULATING POLYAMINE TRANSPORT” (Katholieke Universiteit Leuven, priority 2019, dated 2021).

Molecular target: T1, Purified ATP13A2 (Homo sapiens, UniProt Q9NQ11)
T1 sequence (Q9NQ11 1-1175 isoform Q9NQ11-3): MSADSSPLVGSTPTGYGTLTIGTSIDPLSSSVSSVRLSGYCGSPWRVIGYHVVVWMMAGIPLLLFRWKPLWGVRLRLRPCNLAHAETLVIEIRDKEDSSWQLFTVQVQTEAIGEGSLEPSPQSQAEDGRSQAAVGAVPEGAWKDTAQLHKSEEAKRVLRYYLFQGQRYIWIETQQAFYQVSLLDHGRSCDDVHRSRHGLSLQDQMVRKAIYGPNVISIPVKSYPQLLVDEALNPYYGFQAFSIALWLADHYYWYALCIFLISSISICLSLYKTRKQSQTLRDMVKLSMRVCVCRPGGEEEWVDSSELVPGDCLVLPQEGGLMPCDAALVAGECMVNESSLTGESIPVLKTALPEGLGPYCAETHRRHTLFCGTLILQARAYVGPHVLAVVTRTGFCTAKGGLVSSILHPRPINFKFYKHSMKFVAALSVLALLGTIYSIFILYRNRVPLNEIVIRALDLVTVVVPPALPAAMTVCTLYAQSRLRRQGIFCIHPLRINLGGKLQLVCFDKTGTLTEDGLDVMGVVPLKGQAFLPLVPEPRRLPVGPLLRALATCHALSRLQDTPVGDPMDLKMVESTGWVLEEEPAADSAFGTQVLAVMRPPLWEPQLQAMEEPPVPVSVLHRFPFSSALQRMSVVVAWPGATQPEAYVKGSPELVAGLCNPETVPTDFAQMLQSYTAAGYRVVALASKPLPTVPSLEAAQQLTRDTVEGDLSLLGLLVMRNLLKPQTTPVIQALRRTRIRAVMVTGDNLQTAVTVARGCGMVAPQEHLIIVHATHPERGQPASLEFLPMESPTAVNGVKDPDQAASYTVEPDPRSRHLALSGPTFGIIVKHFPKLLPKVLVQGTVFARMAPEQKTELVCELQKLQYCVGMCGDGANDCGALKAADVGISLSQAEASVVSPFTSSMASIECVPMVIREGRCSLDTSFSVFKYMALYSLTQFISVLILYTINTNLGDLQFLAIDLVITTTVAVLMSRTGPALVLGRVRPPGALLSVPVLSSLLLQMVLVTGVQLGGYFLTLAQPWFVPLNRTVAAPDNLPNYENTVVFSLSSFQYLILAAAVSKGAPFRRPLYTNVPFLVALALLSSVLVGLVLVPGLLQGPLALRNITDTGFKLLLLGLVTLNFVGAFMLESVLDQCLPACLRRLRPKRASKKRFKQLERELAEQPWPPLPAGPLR
Experiment: ATPase assay (ADP-Glo Max), purified ATP13A2 from yeast expression system
Format: biochemical
Set-up: we obtained >95% pure, full length and solubilized ATP13A2; biotin acceptor domain (BAD) tag behind a thrombin cleavage site (C, cleaved yes); made in house; host or cells: S. cerevisiae W303-1B/Gal4-ΔPep4, pYeDP60 vector
Conditions: for Vmax ± SEM: Purified ATP13A2 with 125 µM PA and 125 µM PI(3,5)P2
Procedure: ATPase assay - The ATPase activity of ATP13A2 was assessed using a commercially available luminescence assay (ADP-Glo Max assay, Promega) that monitors the production of ADP via luciferase activity. The reactions were performed for 30 min (37°C) in a final volume of 25 µl. The assay reaction mixture contained 50 mM MOPS-KOH (pH 7), 100 mM KCI, 11 mM MgCl2, 1 mM DTT, 195 µM DDM, various concentrations of the indicated compound, and either microsomes (5 µg) harvested from SH-SY5Y cells overexpressing ATP13A2 (WT or mutants) or purified ATP13A2 (0.5 µg). When purified ATP13A2 was used, we included 125 µM PA, 125 µM PI(3,5)P2 and 19.5 µM DDM in the reaction buffer. The assay was started by the addition of 5 mM ATP and was terminated by adding 25 µl of ADP-Glo Reagent. The 96-well plate was then incubated for 40 min at room temperature, followed by the addition of 50 µl of ADP-Glo Max Detection Reagent. After 40 min, luminescence was detected using a FlexStation 3.0 system (Molecular Devices). Dose-response curves and n/Km/Vmax values were calculated using GraphPad Prism Software (GraphPad Software Inc.).
Transformation and overexpression of ATP13A2 in yeast - The S. cerevisiae W303-1B/Gal4-ΔPep4 strain (leu2-3, his3-11,15, trp1-1::TRP1-GAL10-GAL4, ura3-1, ade2-1, canr, cir^+, ΔPep4 MAT; a kind gift from Rosa Lopez Marques) was transformed according to the lithium acetate/single-stranded carrier DNA/polyethylene glycol method [Gietz, R. D. & Woods, R. A. Methods Enzymol 350, 87-96 (2002)], with the pYeDP60 vector containing a yeast codon optimized version of human ATP13A2 variant 2 (WT or the catalytically dead E343A mutant) followed by a thrombin cleavage site and a C-terminal BAD tag [Azouaoui, H. et al. PLoS One 9, e112176, (2014); Jidenko, M. et al.Protein Expr Purif 48, 32-42, (2006)]. The transformation mixture was grown for 48 h at 30°C on minimal medium agar plates lacking uracil (0.54% yeast nitrogen base without amino acids, 0.12% yeast drop-out mix without Ura, 2% glucose, and 2% agar) to select yeast colonies that acquired the plasmid. These colonies were then cultured in 20 ml of MM-Ura medium (0.67% yeast nitrogen base without amino acids, 0.19% yeast drop-out mix without Ura, and 2% glucose) and grown for 24 h at 28°C and 200 rpm. The MM-Ura yeast pre-culture was used to inoculate 100 ml of MM-Ura medium to a final OD600 of 0.2, followed by a 12 h incubation period (28°C and 200 rpm). The second pre-culture was inoculated into 4.5 l of YPGE2X medium (2% yeast extract, 2% bactopeptone, 1% glucose, and 2.7% ethanol) to a final OD600 of 0.05 and grown for 36 h (28°C and 175 rpm). ATP13A2-BAD expression was induced with 2% galactose, followed by a second galactose induction 12 h later. After another 12 h, the pellet was collected (1,000 x g; 10 min; 4°C).
Yeast membrane preparation - Yeast cells were broken with glass beads using a BeadBeater (BioSpec products). The lysis buffer contained 50 mM Tris-HCI (pH 7.5), 1 mM EDTA, 0.6 M sorbitol, 1 mM phenylmethylsulfonyl fluoride and SigmaFast protease inhibitor. To remove cell debris and nuclei, the crude extract was centrifuged at 2,000 x g for 20 min (4°C). The supernatant (S1) was centrifuged at 20,000 x g for 20 min (4°C) to pellet the heavy membrane fraction (P2), and the resulting supernatant (S2) was further centrifuged at 200,000 x g for 1 h (4°C). The resulting pellet (i.e., the light membrane fraction, P3) was resuspended in 20 mM HEPES-Tris (pH 7.4), 0.3 M sucrose and 0.1 mM CaCl2. The total protein concentration was determined using a Bradford assay (B6916, Sigma-Aldrich).
ATP13A2-BAD purification - The method used to purify ATP13A2 was based on the purification of overexpressed Drs2p from yeast membranes. Yeast P3 membranes were diluted to 5 mg of total protein/ml in SSR buffer (50 mM MOPS-KOH (pH 7), 100 mM KCI, 20% glycerol, 5 mM MgCl2, 1 mM DTT, and SigmaFast protease inhibitor cocktail) and solubilized using DDM, with a detergent to protein ratio of 1:1.

`NCCCCNCCCN` [Spermidine, spermidine] was tested, and the “Vmax ± SEM” value was 194 ± 26 nmol ADP/mg/min.
`NCCCNCCCCNCCCN` [Spermine, spermine] was tested, and the “Vmax ± SEM” value was 159 ± 10 nmol ADP/mg/min and the “ATPase activity of purified ATP13A2” value (indicated SPM concentrations) was “stimulated the ATPase activity”.
